Test results from patent publication US9949983B2, “Fused benzazepines for treatment of stuttering” (PSYADON PHARMACEUTICALS, INC., priority 2013, dated 2018).
Like-named read-outs stand apart in the source and are kept apart here.

Legend:
stuttering = details: cited from earlier work
[1] = cited from earlier work
dopamine D1 receptors = dopamine D1 receptors (Homo sapiens, UniProt P21728); details: radiolabeled ecopipam, healthy volunteers; cited from earlier work
D1 receptor = target: T1, D1 receptor (Rattus norvegicus, UniProt P18901); details: rats, selective D1-agonist discriminative stimulus; cited from earlier work
T1 construct: In vivo studies on dopamine-agonist-induced behaviors; from tissue; host or cells: living rats (in vivo)

[2] = Open-label clinical study of safety, tolerability and activity in adult patients with Tourette's Syndrome; type: in vivo, human; details: adult TS patients, 50 mg/day Weeks 1-2, 100 mg/day Weeks 3-8
Protocol: A clinical program was carried out to test the safety, tolerability, and activity of ecopipam in adult patients with Tourette's Syndrome. A multicenter, open-label, nonrandomized study in 25 to 30 subjects was conducted to assess the activity and safety of ecopipam in subjects with TS. […] Assessment was performed at each visit. A follow-up visit was conducted via telephone at Week 10 to record any adverse events. Ecopipam was administered daily before bedtime at 50 mg/day for Week 1 and Week 2 and at 100 mg/day for Weeks 3-8. This treatment regimen is within the scope of the present invention; the compositions and various formulations described herein can be administered as described in this Example. The demographics of the study population were as follows: eighty three percent of the subjects were male (15 out of 18); fifteen were Caucasian, two were African-American, and one was an Asian/Pacific Islander. All subjects reported at least one adverse event (AE). […] These side effects are similar to those seen in other studies with ecopipam and were not unexpected.

D1/D5 receptors = details: rat brain homogenates, at low concentrations; cited from earlier work
D1 receptors = D1 receptors (Homo sapiens, UniProt P21728); assay: In vitro cAMP second messenger studies (adenylate cyclase); type: biochemical
Protocol: (§1) Activation of D1 receptors by dopamine and similar agonists stimulates the production of cyclic AMP (cAMP) via activation of adenylate cyclase. […] To ensure that there was no species specificity to the receptor binding profile, ecopipam's potency and selectivity were evaluated using cloned human receptors. […] Positron emission tomography (PET) studies using radiolabeled ecopipam have been conducted in healthy volunteers (Karlsson et al., Psychopharmacol., 121:300-308, 1995).

hD1/hD5 receptors = assay: Binding to cloned human receptors
Protocol: as §1

[3] = known D2 antagonists, literature reports

Chain of D1 receptors (P21728 whole entry): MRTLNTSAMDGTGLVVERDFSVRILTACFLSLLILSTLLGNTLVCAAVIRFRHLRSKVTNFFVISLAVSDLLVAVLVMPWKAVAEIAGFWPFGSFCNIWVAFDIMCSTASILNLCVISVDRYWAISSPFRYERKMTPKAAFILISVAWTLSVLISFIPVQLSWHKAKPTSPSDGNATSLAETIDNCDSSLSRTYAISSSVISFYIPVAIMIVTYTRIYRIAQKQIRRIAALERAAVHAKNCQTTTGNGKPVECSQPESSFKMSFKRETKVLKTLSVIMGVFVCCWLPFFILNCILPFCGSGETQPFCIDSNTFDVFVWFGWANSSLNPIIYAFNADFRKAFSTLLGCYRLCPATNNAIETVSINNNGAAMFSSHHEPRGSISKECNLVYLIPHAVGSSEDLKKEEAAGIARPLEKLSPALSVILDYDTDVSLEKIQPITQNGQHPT
Chain of dopamine D1 receptors (P21728 whole entry): as above
T1 sequence (P18901 whole entry): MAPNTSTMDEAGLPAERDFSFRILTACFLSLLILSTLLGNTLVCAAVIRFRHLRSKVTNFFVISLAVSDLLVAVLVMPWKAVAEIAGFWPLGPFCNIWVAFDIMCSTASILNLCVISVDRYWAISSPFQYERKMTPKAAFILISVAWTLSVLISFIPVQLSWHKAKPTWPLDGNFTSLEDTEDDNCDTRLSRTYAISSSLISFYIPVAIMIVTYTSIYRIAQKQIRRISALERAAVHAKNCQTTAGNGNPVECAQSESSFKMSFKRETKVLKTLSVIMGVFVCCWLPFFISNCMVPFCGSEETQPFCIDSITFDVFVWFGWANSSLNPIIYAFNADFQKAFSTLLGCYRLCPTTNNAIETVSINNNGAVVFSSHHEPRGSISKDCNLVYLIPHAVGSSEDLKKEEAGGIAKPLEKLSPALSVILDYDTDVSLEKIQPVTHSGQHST

Compound: CN1CC2c3ccccc3Oc3ccc(Cl)cc3C2C1 (stereo not shown) [asenapine]
- reported effect on stuttering (stuttering; [3]): induce stuttering

Compound: CN1CCc2cc(Cl)c(O)cc2C2c3ccccc3CCC21 (stereo not drawn) [Q=CH2, n=1, trans, X=Cl, Y=OH, 6,7,7a,8,9,13b-hexahydro-3-chloro-2-hydroxy-7-methyl-5H-benzo[d]naphtho[2,1-b]azepine]
- CAR (MED) ([1]; po): 30
- CAR (MED) ([1]; sc): 0.3

Compound: CN1CCc2cc(Cl)c(O)cc2[C@@H]2c3ccccc3CC[C@H]21 [Q=CH2, n=1, 7b(S):7a(R)(+), X=Cl, Y=OH, 6,7,7a,8,9,13b-hexahydro-3-chloro-2-hydroxy-7-methyl-5H-benzo[d]naphtho[2,1-b]azepine]
- CAR (MED) ([1]; po): >30 (po)

Compound: Cc1cc2c(s1)Nc1ccccc1N=C2N1CCN(C)CC1 [olanzapine]
- reported effect on stuttering (stuttering; [3]): induce stuttering

Compound: COc1cc2c(cc1O)C1c3ccccc3CCCC1N(C)CC2 (stereo not drawn) [Q=CH2, n=2, trans, X=CH3O, Y=OH, 2-hydroxy-3-methoxy-7-methyl-5,6,7,7a,8,9,10,14b-octahydro-benzo[d]benzo[3,4]cyclo-hepta[1,2-b]azepine]
- CAR (MED) ([1]; sc): 10 (sc)

Compound: CN1CCc2cc(Cl)c(O)cc2[C@H]2c3ccccc3CC[C@@H]21 [Q=CH2, n=1, 7b(R): 7a(S)(−), X=Cl, Y=OH, 6,7,7a,8,9,13b-hexahydro-3-chloro-2-hydroxy-7-methyl-5H-benzo[d]naphtho[2,1-b]azepine]
- CAR (MED) ([1]; po): 30 (po)

Compound: CN1CCc2cc(Cl)c(N)cc2C2c3ccccc3CCC21 (stereo not drawn) [Q=CH2, n=1, trans, X=Cl, Y=NH2, 6,7,7a,8,9,13b-hexahydro-2-amino-3-chloro-7-methyl-5H-benzo[d]naphtho[2,1-b]azepine]
- CAR (MED) ([1]; po): 3 (po)

Compound: CN1CCc2cc(Cl)c(O)cc2[C@H]2c3ccccc3CC[C@@H]21 [ecopipam, (−)-trans-6,7,7a,8,9,13b-hexahydro-3-chloro-2-hydroxy-N-methyl-5H-benzo [d]-naphtho-[2,1-b]azepine]
- binding in human brain (PET) (dopamine D1 receptors): specific binding in the human brain
- action on dopamine-agonist-induced behaviors (D1 receptor): selective D1 antagonist
- patients reporting AEs rated as severe ([2]; 18 subjects): Four
- subjects reporting at least one adverse event ([2]; 18 subjects): All subjects
- AEs rated as severe (kinds) [2]: sedation, insomnia, decreased appetite, hypersensitivity, cold sweat, and feeling jittery
- AEs rated mild to moderate reported in more than three subjects [2]: fatigue, insomnia, nausea, sedation, headache, restlessness, anxiety, muscle twitching, dysphoria, and sleeplessness
- changes in lab tests [2]: none were of clinical significance
- changes in vital signs [2]: no clinically significant changes in vital signs
- serious adverse events [2]: no serious adverse events
- affinity for D1/D5 receptors (D1/D5 receptors): high affinity
- action on cAMP second messenger (D1 receptors): antagonist
- affinity for hD1/hD5 receptors (hD1/hD5 receptors): high affinity

Compound: COc1cc2c(cc1O)CCN(C)C1CCCc3ccccc3C21 (stereo not drawn) [Q=CH2, n=2, trans, X=HO, Y=CH3O, 3-hydroxy-2-methoxy-7-methyl-5,6,7,7a,8,9,10,14b-octahydro-benzo[d]benzo[3,4]cyclo-hepta[1,2-b]azepine]
- CAR (MED) ([1]; sc): 10 (sc)

Compound: Cc1nc2n(c(=O)c1CCN1CCC(c3noc4cc(F)ccc34)CC1)CCCC2 [risperidone]
- reported effect on stuttering (stuttering; [3]): induce stuttering

Compound: COC(=O)C(c1ccccc1)C1CCCCN1 (stereo not shown) [methylphenidate]
- reported effect on stuttering (stuttering; D2-preferring dopamine agonist, literature report): relieve stuttering

Compound: COc1cc2c(cc1O)C1c3ccccc3CCC1N(C)CC2 (stereo not drawn) [Q=CH2, n=1, trans, X=CH3O, Y=OH, 6,7,7a,8,9,13b-hexahydro-2-hydroxy-3-methoxy-7-methyl-5H-benzo[d]naphtho[2,1-b]azepine]
- CAR (MED) ([1]; po): 30
- CAR (MED) ([1]; sc): 0.3-1
